Experiments:
[1] = Differential solubility in acetonitrile (PTx method, NRTL model); settings: at or near ambient conditions; for solubility in acetonitrile: solvent acetonitrile, from NRTL model generated from the PTx data (FIG. 7)
Excerpt: Static Vapor-Liquid Equilibrium Methods are a class of experimental techniques that can be used to identify thermodynamic interactions between a solvent (i.e. absorbing species) and a target solute (i.e. species being absorbed). One such technique, known as the PTx method, collects measurements of the total saturation pressure (“P”) exerted by mixtures of known compositions (“x”) at fixed temperatures (“T”) and cell volumes. […] Using data collected from the PTx experiment, as well as pure component properties of constituents of the mixtures, the thermodynamic properties of the mixtures can be accurately characterized by fitting the component's interaction parameters in a well-defined thermodynamic equation; one such equation is the Nonrandom, Two-liquid (NRTL) activity coefficient model by Renon and Prausnitz (Local Compositions in Thermodynamic Excess Functions for Liquid Mixtures, AIChE Journal, Vol. 14, January 1968, pp. 135-144).
(§1) From a well-characterized thermodynamic model (such as NRTL fit against PTx data), solubility curves can be generated. The solubility is defined as the liquid composition of the solute in the liquid phase at saturation, generally as a function of pressure and temperature. By comparing solubility curves for different solutes, the solvent's selectivity (i.e. preference) towards a particular solute can be identified; the larger the selectivity the more the solvent prefers to absorb one species while rejecting the other.
Following the same procedure as described in Example 7A, the PTx behavior of trifluoroiodomethane (CF3I) with acetonitrile and trifluoroacetyl chloride (CF3COCl) with acetonitrile was studied at temperatures of −10° C., 10° C., 30° C., and 50° C. […]
(§2) Using the NRTL model generated from the PTx data, the solubility of both trifluoroiodomethane (CF3I) and trifluoroacetyl chloride (CF3COCl) for a given temperature and pressure can be determined and compared.

[2] = Differential solubility in toluene (PTx method, NRTL model); settings: around ambient conditions; for solubility in toluene: solvent toluene, from NRTL model generated from the PTx data (FIG. 5)
Excerpt: One such technique, known as the PTx method, collects measurements of the total saturation pressure (“P”) exerted by mixtures of known compositions (“x”) at fixed temperatures (“T”) and cell volumes. […] Using data collected from the PTx experiment, as well as pure component properties of constituents of the mixtures, the thermodynamic properties of the mixtures can be accurately characterized by fitting the component's interaction parameters in a well-defined thermodynamic equation; one such equation is the Nonrandom, Two-liquid (NRTL) activity coefficient model by Renon and Prausnitz (Local Compositions in Thermodynamic Excess Functions for Liquid Mixtures, AIChE Journal, Vol. 14, January 1968, pp. 135-144).
as §1
A set of volume calibrated PTx cells were used to measure the solubility characteristics of trifluoroiodomethane (CF3I) in toluene as well as trifluoroacetyl chloride (CF3COCl) in toluene. Mixtures of trifluoroiodomethane (CF3I) and toluene as well as trifluoroacetyl chloride (CF3COCl) and toluene were gravimetrically prepared into evacuated PTx cells. […] Once at equilibrium, recognized when temperature and pressures of each cell remain stable for several hours, the local temperature and saturation pressures of each cell were recorded and adjustments for the next set point were made. […]
as §2

[3] = Differential solubility in mineral oil (PTx method, NRTL model); settings: solvent mineral oil; at or near ambient conditions; from NRTL model generated from the PTx data (FIG. 6)
Excerpt: as §1
Following the same procedure described in Example 7A, the PTx behavior of trifluoroiodomethane (CF3I) with mineral oil and trifluoroacetyl chloride (CF3COCl) with mineral oil was studied at temperatures of 0° C., 20° C., 40° C., and 60° C. Unlike toluene (a single aromatic hydrocarbon entity), the mineral oil solvent comprised a mixture several types of hydrocarbons such as alkanes, cycloalkanes, and others. From the pressure-temperature-composition data, the binary interaction parameters of trifluoroiodomethane (CF3I) with mineral oil and trifluoroacetyl chloride (CF3COCl) with mineral oil for the NRTL activity coefficient model were identified.
as §2

SMILES | selectivity of solvent towards CF3I over CF3COCl ([1]; acetonitrile) | selectivity of solvent towards CF3I over CF3COCl ([2]; toluene) | solubility in acetonitrile [1] | solubility in mineral oil [3] | solubility in toluene [2]
CC#N [acetonitrile] | about 2.5 times |  |  |  | 
Cc1ccccc1 [toluene] |  | about 3.5 times |  |  | 
O=C(Cl)C(F)(F)F [trifluoroacetyl chloride] |  |  | about 15.8 mass % | about 3.6 mass % | about 11.6 mass %
FC(F)(F)I [trifluoroiodomethane] |  |  | about 39.0 mass % | about 12.2 mass % | about 40.8 mass %

From patent US11565992B2, “Methods for separation of azeotrope or azeotrope-like compositions of trifluoroiodomethane (CF3I) and trifluoroacetyl chloride (CF3COCI)” (Honeywell International Inc., priority 2020, dated 2023)
